Consider five compounds from patent publication US4990500A, “Oxirane pseudooligosaccharides, a process for their preparation, their use and pharmaceutical preparations” (Hoechst Aktiengesellschaft, priority 1986, dated 1991).

In data set [1] the target is T1, α-Amylase from the pig pancreas (Sus scrofa, UniProt P00690).
T1 construct: from tissue; host or cells: pig pancreas
T1 sequence (P00690 16-511): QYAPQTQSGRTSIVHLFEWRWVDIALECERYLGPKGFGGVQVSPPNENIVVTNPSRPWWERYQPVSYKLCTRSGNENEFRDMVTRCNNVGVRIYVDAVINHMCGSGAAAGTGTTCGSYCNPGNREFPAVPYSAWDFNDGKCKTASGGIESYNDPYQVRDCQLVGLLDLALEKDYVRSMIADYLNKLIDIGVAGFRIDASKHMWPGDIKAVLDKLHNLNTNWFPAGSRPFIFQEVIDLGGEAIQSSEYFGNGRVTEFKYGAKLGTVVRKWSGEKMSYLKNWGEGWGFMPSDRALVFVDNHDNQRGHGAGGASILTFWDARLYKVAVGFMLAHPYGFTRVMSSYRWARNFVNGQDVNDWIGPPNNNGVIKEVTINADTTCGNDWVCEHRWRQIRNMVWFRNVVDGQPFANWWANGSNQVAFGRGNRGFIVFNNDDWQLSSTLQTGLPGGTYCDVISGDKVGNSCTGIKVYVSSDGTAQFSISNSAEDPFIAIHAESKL
Nature of the data set: Amylase test (inhibition of α-amylase, soluble starch according to Zulkowski, dinitrosalicylic acid). The class given is biochemical. Conditions: for specific activity, α-amylase inhibitor units (AIU) per mg: 1 AIU = amount inhibiting two amylase units to 50%, 37° C., pH 6.9. How it is done: (§1) The specific activities are 4×10^4 α-amylase inhibitor units (AIU) per mg and 1×10^4 saccharase inhibitor unit (SIU) per mg respectively for W-46 H, and 1×10^4 AIU per mg and 3×10^4 SIU per mg respectively for the inhibitor W-46 P. The activities were determined in the following tests:
An amylase inhibitor unit (AIU) is defined as the amount of inhibitor which is capable of inhibiting two amylase units (AU) to 50% under the test conditions. According to international agreement, one amylase unit is the amount enzyme which cleaves 1 μequivalent of glucoside bonds in the starch in one minute. The μgram-equivalents of cleaved glucoside bonds are determined photometrically using dinitrosalicylic acid as the μgram-equivalents of reducing sugars. The data are calculated as μmoles of maltose, determined with reference to a maltose calibration line.
The tests are carried out as follows:
α-Amylase from the pig pancreas and the solutions to be tested are preincubated together at 37° C. for 10-20 minutes in 1.0 ml of 20 mM phosphate buffer, pH 6.9+10 mM of NaCl. The enzymatic reaction is initiated according to Zulkowski by adding 1.0 ml of soluble starch (0.25% in the buffer specified). After exactly 10 minutes, the reaction is terminated using 2.0 ml of dinitrosalicylic acid coloring reagent (according to Boehringer Mannheim: BiochemicaInformation II) and the mixture is heated for 5 minutes in a boiling water bath to develop the color. After cooling, the extinction is measured at 546 nm against the blank reagent. 50% inhibition is determined graphically compared to the uninhibited enzyme reaction by means of the probability plot by using various amounts of inhibitor.

The target in data set [2] is T2, saccharase (disaccharidases from the small intestine mucosa) (Homo sapiens, UniProt P14410).
T2 construct: from tissue
T2 sequence (P14410 whole entry): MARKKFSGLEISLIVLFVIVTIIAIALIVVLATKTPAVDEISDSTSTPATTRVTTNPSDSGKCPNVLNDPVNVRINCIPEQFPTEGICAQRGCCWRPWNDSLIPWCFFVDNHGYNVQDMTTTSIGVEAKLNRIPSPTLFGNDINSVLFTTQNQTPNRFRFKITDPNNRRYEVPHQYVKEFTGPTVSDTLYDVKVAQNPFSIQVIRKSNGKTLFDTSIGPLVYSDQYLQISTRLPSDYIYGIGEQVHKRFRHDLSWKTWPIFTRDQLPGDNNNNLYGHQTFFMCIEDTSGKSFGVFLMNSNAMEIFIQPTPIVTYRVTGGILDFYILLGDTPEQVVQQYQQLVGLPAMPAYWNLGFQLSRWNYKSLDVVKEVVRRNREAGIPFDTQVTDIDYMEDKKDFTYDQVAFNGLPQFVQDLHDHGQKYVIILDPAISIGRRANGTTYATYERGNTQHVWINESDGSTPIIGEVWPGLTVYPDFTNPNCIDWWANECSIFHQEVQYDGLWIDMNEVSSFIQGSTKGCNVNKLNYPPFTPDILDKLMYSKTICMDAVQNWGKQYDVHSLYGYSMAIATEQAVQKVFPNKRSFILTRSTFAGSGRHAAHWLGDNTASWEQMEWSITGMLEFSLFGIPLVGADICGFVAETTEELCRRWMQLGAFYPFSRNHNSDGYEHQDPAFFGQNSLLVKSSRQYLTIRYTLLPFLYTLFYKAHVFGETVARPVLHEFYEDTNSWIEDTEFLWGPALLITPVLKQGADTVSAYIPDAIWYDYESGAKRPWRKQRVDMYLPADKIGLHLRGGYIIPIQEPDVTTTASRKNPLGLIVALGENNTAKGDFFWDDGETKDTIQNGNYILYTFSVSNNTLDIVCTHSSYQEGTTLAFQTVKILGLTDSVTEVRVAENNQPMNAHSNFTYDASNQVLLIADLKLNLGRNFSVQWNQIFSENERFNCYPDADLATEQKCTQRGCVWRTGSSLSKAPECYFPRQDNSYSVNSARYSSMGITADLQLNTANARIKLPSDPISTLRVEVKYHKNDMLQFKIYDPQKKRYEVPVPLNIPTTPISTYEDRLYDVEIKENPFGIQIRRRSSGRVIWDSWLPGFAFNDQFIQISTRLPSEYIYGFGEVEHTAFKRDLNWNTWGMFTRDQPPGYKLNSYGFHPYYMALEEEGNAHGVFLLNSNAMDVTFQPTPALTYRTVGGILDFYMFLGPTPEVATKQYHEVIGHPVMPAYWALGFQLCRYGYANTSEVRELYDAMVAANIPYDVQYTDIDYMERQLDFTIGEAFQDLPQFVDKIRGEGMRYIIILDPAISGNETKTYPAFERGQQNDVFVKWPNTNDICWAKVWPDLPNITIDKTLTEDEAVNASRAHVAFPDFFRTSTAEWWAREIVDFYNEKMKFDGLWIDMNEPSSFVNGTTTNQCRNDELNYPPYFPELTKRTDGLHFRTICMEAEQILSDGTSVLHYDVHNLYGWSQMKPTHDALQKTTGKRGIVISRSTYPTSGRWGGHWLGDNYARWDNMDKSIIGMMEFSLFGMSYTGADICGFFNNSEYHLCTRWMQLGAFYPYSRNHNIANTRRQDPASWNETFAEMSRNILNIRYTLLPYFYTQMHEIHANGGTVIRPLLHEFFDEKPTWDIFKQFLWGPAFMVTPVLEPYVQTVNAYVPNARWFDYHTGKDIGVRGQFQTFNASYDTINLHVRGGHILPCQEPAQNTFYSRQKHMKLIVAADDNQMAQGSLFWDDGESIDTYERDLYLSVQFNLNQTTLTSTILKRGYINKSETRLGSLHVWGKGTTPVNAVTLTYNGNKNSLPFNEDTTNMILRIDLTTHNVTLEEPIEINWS
In words: Saccharase test (inhibition of saccharase, hexokinase/glucose-6-phosphate dehydrogenase method). Type of data set: biochemical. The following applies: for specific activity, saccharase inhibitor units (SIU) per mg: 1 SIU = amount inhibiting two saccharase units to 50%. How it is done: as §1
One saccharase inhibitor unit (SIU) is defined as the amount of inhibitor which is capable of inhibiting to 50% two saccharase units (SU) under the test conditions. According to international agreement, one SU is the amount of enzyme which cleaves 1 μequivalent of glycoside bonds in saccharose in one minute. The μgram-equivalents of cleaved glucoside bonds are determined photometrically using the hexokinase/glucose-6-phosphate dehydrogenase method as 2 μgram equivalents. The data are calculated as μmoles of hexoses, determined with reference to a glucose calibration curve.
The tests were carried out according to H. U. Bergmeyer, described in "Methods of Enzymatic Analysis", 3rd edition, Verlag Chemie, Weinheim, 1984, pages 96-103.

Data set [3] deals with blood glucose concentration of sucrose-fed rats. In words: Action on the blood glucose concentration of sucrose-fed rats. Type of data set: in vivo, male Wistar rats. Conditions: for Blood glucose: 2 g/kg sucrose, mean ± SEM, n = 7. The source says: (§2) In order to test the pharmacological action of the α-glucosidase inhibitors, unfed, male Wistar rats weighing between 200 and 250 g were given orally an inhibitor W-46 H or W-46 P according to the invention together with 2 g of starch or sucrose per kg of body weight as a suspension in ®Tylose (methylhydroxyethylcellulose).
(§3) In these investigations, the values collated in Tables 1 (action on the blood glucose concentration of starch-fed rats) and 2 (action on the blood glucose concentration of sucrose-fed rats) were determined for inhibitor W-46 H.
(§4) A limiting value of 0.27 mg/kg of rat is calculated from the values given in Table 1 and a limiting value of 1.29 mg/kg of rat from the values given in Table 2 (the limiting value of the active ingredient is taken to mean the amount per kg of experimental animal at whose administration a clear action can still be seen after one hour).

For data set [4], the system named is blood glucose concentration of starch-fed rats. In words: Action on the blood glucose concentration of starch-fed rats. The following applies: for Blood glucose: 2 g/kg starch, mean ± SEM, n = 7. The class given is in vivo, male Wistar rats.
Source text: as §2, §3, §4

In the next data set the test system is experimental animals. Nature of the data set: Oral administration of high doses to experimental animals (symptoms). Type of data set: in vivo. Conditions: even high doses.

Where a name gives a salt, the structure may show the parent alone.

`CC1OC(OC2C(CO)OC(O)C(O)C2O)C(O)C(O)C1NC1C(O)C(O)C(OC2OC(CO)C(OC3OC(C)C(NC4C(O)C(O)C(O)C5(CO)OC45)C(O)C3O)C(O)C2O)C2(CO)OC12` (centres unmarked) [W-46 H chloride]: the “specific activity, α-amylase inhibitor units (AIU) per mg” value in data set [1] was 3.9×10^4 AIU/mg. The “specific activity, saccharase inhibitor units (SIU) per mg” value in data set [2] is 1×10^4 SIU/mg.
Taken in the same sequence, the figures for `CC1OC(OC2C(CO)OC(O)C(O)C2O)C(O)C(O)C1NC1C(O)C(O)C(OC2OC(CO)C(OC3OC(C)C(NC4C(O)C(O)C(O)C5(CO)OC45)C(O)C3O)C(O)C2O)C2(CO)OC12` (centres unmarked) [W-46 H glucuronate] were 3.6×10^4 AIU/mg and 9×10^3 SIU/mg.
As for `CC1OC(OC2C(CO)OC(O)C(O)C2O)C(O)C(O)C1NC1C(O)C(O)C(OC2OC(CO)C(OC3OC(C)C(NC4C(O)C(O)C(O)C5(CO)OC45)C(O)C3O)C(O)C2O)C2(CO)OC12` (centres unmarked) [W-46 H sulfate], the “specific activity (α-amylase inhibitor units)” value in data set [1] (sulfate, printed without per mg) is listed as 3.8×10^4 AIU. The “specific activity, saccharase inhibitor units (SIU) per mg” value in data set [2] was 9.6×10^3 SIU/mg.
With `CC1OC(OC2C(CO)OC(O)C(O)C2O)C(O)C(O)C1NC1C(O)C(O)C(OC2OC(CO)C(OC3OC(C)C(NC4C(O)C(O)C(O)C5(CO)OC45)C(O)C3O)C(O)C2O)C2(CO)OC12` (centres unmarked) [W-46 H], the minimal effective dose in data set [3] (Rattus norvegicus, po, 1 h, sucrose-fed rats, p.o., calculated from Table 2, read-out: limiting value (amount per kg at whose administration a clear action can still be seen after one hour)) is 1.29 mg/kg; in data set [4] (Rattus norvegicus, po, 1 h, starch-fed rats, p.o., calculated from Table 1, read-out: limiting value (amount per kg at whose administration a clear action can still be seen after one hour)), 0.27 mg/kg. In addition, the Blood glucose in data set [3] (p.o. dose 1 mg/kg, 0 minutes) was 3.99 ± 0.10 mmol/1; in data set [3] (p.o. dose 1 mg/kg, 15 minutes), 6.07 ± 0.28 mmol/1; in data set [3] (p.o. dose 1 mg/kg, 30 minutes) it was 6.01 ± 0.22 mmol/1; in data set [3] (p.o. dose 1 mg/kg, 60 minutes) it was 6.34 ± 0.14 mmol/1; in data set [3] (p.o. dose 1 mg/kg, 120 minutes), 5.45 ± 0.13 mmol/1; in data set [3] (p.o. dose 1 mg/kg, 240 minutes), 4.57 ± 0.07 mmol/1. The Blood glucose in data set [3] (p.o. dose 3 mg/kg, 0 minutes) is 3.94 ± 0.14 mmol/1; in data set [3] (p.o. dose 3 mg/kg, 15 minutes), 5.71 ± 0.23 mmol/1; in data set [3] (p.o. dose 3 mg/kg, 30 minutes), 5.53 ± 0.19 mmol/1; in data set [3] (p.o. dose 3 mg/kg, 60 minutes), 5.47 ± 0.15 mmol/1; in data set [3] (p.o. dose 3 mg/kg, 120 minutes) it was 5.20 ± 0.16 mmol/1; in data set [3] (p.o. dose 3 mg/kg, 240 minutes) it was 4.83 ± 0.15 mmol/1. Moreover, the Blood glucose is recorded as 4.01 ± 0.15 mmol/1 in data set [3] (p.o. dose 10 mg/kg, 0 minutes); 5.06 ± 0.20 mmol/1 in data set [3] (p.o. dose 10 mg/kg, 15 minutes); 5.11 ± 0.10 mmol/1 in data set [3] (p.o. dose 10 mg/kg, 30 minutes); 4.82 ± 0.09 mmol/1 in data set [3] (p.o. dose 10 mg/kg, 60 minutes); 4.50 ± 0.11 mmol/1 in data set [3] (p.o. dose 10 mg/kg, 120 minutes); 4.29 ± 0.22 mmol/1 in data set [3] (p.o. dose 10 mg/kg, 240 minutes). Besides, the Blood glucose stood at 3.77 ± 0.09 mmol/L in data set [4] (p.o. dose 0.3 mg/kg, 0 hours); 5.53 ± 0.17 mmol/L in data set [4] (p.o. dose 0.3 mg/kg, 0.5 hours); 5.59 ± 0.06 mmol/L in data set [4] (p.o. dose 0.3 mg/kg, 1 hour); 5.67 ± 0.13 mmol/L in data set [4] (p.o. dose 0.3 mg/kg, 2 hours); 4.86 ± 0.18 mmol/L in data set [4] (p.o. dose 0.3 mg/kg, 3 hours); 4.39 ± 0.13 mmol/L in data set [4] (p.o. dose 0.3 mg/kg, 5 hours). In addition, the Blood glucose turned out to be 3.93 ± 0.10 mmol/L in data set [4] (p.o. dose 1.0 mg/kg, 0 hours); 5.04 ± 0.08 mmol/L in data set [4] (p.o. dose 1.0 mg/kg, 0.5 hours); 5.07 ± 0.09 mmol/L in data set [4] (p.o. dose 1.0 mg/kg, 1 hour); 4.99 ± 0.14 mmol/L in data set [4] (p.o. dose 1.0 mg/kg, 2 hours); 4.57 ± 0.10 mmol/L in data set [4] (p.o. dose 1.0 mg/kg, 3 hours); 4.13 ± 0.08 mmol/L in data set [4] (p.o. dose 1.0 mg/kg, 5 hours). In addition, in the data set with experimental animals, the “striking symptoms after oral administration” value is recorded as “not possible to detect striking symptoms”. The “inhibition of the α-amylase from the pancreas (in words)” value in data set [1] is “strongly inhibit”. Moreover, the “specific activity, α-amylase inhibitor units (AIU) per mg” value in data set [1] and in data set [1] (listed as W-46 H (free base)) was 4×10^4 AIU/mg throughout. The “inhibition of the disaccharidases from the small intestine mucosa, in particular the saccharase (in words)” value in data set [2] is reported as “strongly inhibit”. The “specific activity, saccharase inhibitor units (SIU) per mg” value in data set [2] and in data set [2] (listed as W-46 H (free base)) was 1×10^4 SIU/mg each time.
As for `CC1OC(O)C(O)C(O)C1NC1C(O)C(O)C(OC2OC(CO)C(OC3OC(C)C(NC4C(O)C(O)C(O)C5(CO)OC45)C(O)C3O)C(O)C2O)C2(CO)OC12` (centres unmarked) [W-46 P], the “striking symptoms after oral administration” value in the data set on experimental animals is reported as “not possible to detect striking symptoms”. Moreover, in data set [1], the “inhibition of the α-amylase from the pancreas (in words)” value is recorded as “strongly inhibit” and the “specific activity, α-amylase inhibitor units (AIU) per mg” value is listed as 1×10^4 AIU/mg. In addition, in data set [2], the “inhibition of the disaccharidases from the small intestine mucosa, in particular the saccharase (in words)” value is listed as “strongly inhibit” and the “specific activity, saccharase inhibitor units (SIU) per mg” value is on record as 3×10^4 SIU/mg.
